Drawing on patent US20240307409A1, “ARGININE METHYLTRANSFERASE INHIBITOR AND USE THEREOF” (Cytosinlab Therapeutics Co., Ltd., priority 2021, published 2024), this text covers IC50 and EC30 for three compounds.

In one assay the target is T1, PRMT4 (Homo sapiens, UniProt Q86X55).
T1 sequence (Q86X55 1-608): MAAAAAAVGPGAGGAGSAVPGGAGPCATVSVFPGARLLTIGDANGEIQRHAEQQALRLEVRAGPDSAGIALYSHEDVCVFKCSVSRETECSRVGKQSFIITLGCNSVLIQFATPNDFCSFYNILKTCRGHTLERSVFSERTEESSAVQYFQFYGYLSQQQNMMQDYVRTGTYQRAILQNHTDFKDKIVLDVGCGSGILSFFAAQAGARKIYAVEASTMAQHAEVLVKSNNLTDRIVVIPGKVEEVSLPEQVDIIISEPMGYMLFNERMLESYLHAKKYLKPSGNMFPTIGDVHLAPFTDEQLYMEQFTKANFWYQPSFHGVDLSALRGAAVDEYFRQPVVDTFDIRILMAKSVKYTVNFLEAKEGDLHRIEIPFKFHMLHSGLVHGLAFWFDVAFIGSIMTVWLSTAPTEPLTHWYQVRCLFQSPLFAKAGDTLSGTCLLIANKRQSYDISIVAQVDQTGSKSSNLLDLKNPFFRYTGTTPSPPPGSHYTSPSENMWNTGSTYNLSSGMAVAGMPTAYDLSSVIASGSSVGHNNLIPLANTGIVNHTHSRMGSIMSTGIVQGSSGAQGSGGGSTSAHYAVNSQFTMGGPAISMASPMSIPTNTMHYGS
The assay can be described thus: PRMT panel selectivity test, PRMT4. The format is biochemical. As to the method:
[The procedure below names another target; the source says it served here with some conditions changed.] (§1) This experiment was assayed in a buffer prepared on the same day consisting of 10 mMTirs-HCl (pH=8.0), […] and 1 mM DTT. The compounds were prepared to the highest inhibitor concentration ultimately required in the 100× reaction with 100% DMSO and then transferred to one well of a 384-well Echo plate (Echo-eligible 384-well polypropylene microplates 2.0, transparent, flat-bottomed) and sequentially diluted in the next well with a 3-fold dilution of 100% DMSO, and so on, with a total of 10 concentrations based on Precision. 100% DMSO was added to two empty wells as control well without compound and control well without enzyme in the same 384-well Echo plate. 100 nL of compound was transferred from each well of the 384-well Echo plate to a 384-well assay plate (OptiPlate (384-well, white)) via the Echo 550 liquid processor. For wells with compounds and control well without compound, a mixture containing PRMT1 enzyme (5 uL) was added to the 384-well assay plate. For control well without enzyme, a mixture containing test buffer (5 uL) was added instead. The compounds were allowed to incubate with PRMT3 for 15 minutes at room temperature, and then a mixture containing cold SAM and peptide (5 uL) was added to start the reaction (final volume=10 uL). The final concentrations of the components were as follows: 0.1 nM for PRMT3, 15 uM for SAM, 0.05 uM for peptide, and 1% DMSO. After 60 min of incubation at room temperature, the reaction was terminated by the addition of donor and acceptor magnetic beads (15 uL) with a final concentration of 10 ug/mL diluted with AlphaLISA Epigenetics Buffer. The 384-well assay plate was incubated at room temperature for 60 min and the relative fluorescence units (RFU) were nextly determined using a multi-mode plate reader in Alpha mode (Ex680/Em615).
(§2) Curve fitting: the raw data were copied from Reader and the inhibition values were calculated in Excel by equation (1). […]

The target in another assay is PRMT6 (Homo sapiens, UniProt Q96LA8). The assay can be described thus: PRMT panel selectivity test, PRMT6. The assay is classed as biochemical. As to the method:
[The procedure below names another target; the source says it served here with some conditions changed.] as §1, §2

The test system of the next assay is MMA in RKO cells. The assay can be described thus: RKO In Cell Western assay (MMA primary antibody). The assay is classed as cell-based. The following applies: Homo sapiens, 72 hours, read-out: RKO ICW_EC30. Put shortly: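 After 72 h compound exposure at 37 °C, RKO cells (2,000/well) were fixed, permeabilized and probed with MMA primary antibody plus HRP secondary, TMB read at OD450. Signal normalized to Janus green OD595; activation % derived from OD450/OD595 relative to DMSO and 10 μM positive controls, 8-point threefold series from 5 μM.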

PRMT6, sequence (Q96LA8 whole entry): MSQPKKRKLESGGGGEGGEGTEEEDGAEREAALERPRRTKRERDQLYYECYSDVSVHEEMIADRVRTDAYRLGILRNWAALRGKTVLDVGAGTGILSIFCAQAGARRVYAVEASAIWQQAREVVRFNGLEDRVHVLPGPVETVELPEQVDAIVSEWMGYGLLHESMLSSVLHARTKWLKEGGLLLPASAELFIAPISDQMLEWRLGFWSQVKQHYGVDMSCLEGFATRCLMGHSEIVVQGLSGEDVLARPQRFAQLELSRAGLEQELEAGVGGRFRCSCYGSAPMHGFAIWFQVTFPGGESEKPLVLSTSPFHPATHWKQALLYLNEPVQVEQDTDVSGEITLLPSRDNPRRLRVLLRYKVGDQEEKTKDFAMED

What is called IC50 is the concentration that inhibits the measured activity by half. The low end stands for greater potency in that assay, the high end for weaker potency in that assay. `CNCCN(C)Cc1ccccc1C1CCN(c2ccccc2)CC1` [P023]: the IC50 against PRMT4 and on PRMT6 was < 50 nM throughout. The EC30 in the assay on MMA in RKO cells is < 250 nM.

Take `CNCCN(C)Cc1ncccc1N1CCc2ccccc2CC1` [P118]: the IC50 against PRMT4 is 50 to 500 nM; at PRMT6, < 50 nM. Besides, in the assay with MMA in RKO cells, the EC30 is < 250 nM.

With `CCOCC1(COCC)CCC(c2cccnc2CN(C)CCNC)CC1` [P207], the IC50 against PRMT4 and on PRMT6 was < 50 nM throughout. Moreover, the EC30 in the assay with MMA in RKO cells is < 250 nM.
